Reference: ChEMBL document CHEMBL2176989, “Design, synthesis, and pharmacological evaluation of piperidin-4-yl amino aryl sulfonamides: novel, potent, selective, orally active, and brain penetrant 5-HT₆ receptor antagonists” (J Med Chem, 2012)

Key:
[1] = target: 5-hydroxytryptamine receptor 6 (Homo sapiens) (UniProt P50406); test: Antagonist activity at human recombinant 5HT6 receptor expressed in CHO cells assessed as inhibition of 5HT-induced luciferase activity after 4 hrs by reporter gene assay relative to control; format: functional, cell-based
Sequence of 5-hydroxytryptamine receptor 6 (Homo sapiens) (P50406 whole entry): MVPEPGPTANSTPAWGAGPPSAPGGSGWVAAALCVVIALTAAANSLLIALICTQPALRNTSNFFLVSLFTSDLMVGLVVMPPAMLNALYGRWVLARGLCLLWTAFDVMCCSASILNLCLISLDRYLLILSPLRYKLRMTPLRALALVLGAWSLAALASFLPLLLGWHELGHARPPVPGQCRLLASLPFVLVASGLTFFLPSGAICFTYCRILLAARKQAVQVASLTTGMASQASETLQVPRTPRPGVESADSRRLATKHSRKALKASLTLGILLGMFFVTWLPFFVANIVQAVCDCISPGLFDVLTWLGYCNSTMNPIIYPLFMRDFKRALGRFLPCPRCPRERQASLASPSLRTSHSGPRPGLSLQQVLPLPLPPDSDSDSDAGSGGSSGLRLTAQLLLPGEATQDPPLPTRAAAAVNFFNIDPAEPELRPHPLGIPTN

[2] = target: 5-hydroxytryptamine receptor 6 (Homo sapiens) (UniProt P50406); test: Antagonist activity at human recombinant 5HT6 receptor expressed in CHO cells assessed as inhibition of 5HT-induced luciferase activity after 4 hrs by reporter gene assay; format: functional, cell-based
[3] = AUC (0 to 24 hrs) in fasted Wistar rat at 10 mg/kg, po; format: ADME, organism-based; design: time < 24 hr, dose 10 mg/kg, route oral; settings: plasma
[4] = Oral bioavailability in fasted Wistar rat at 10 mg/kg; format: ADME, organism-based; settings: in vivo
[5] = Tmax in fasted Wistar rat at 10 mg/kg, po; format: ADME, organism-based; design: dose 10 mg/kg, route oral; settings: in vivo
[6] = Cmax in fasted Wistar rat at 10 mg/kg, po; format: ADME, organism-based; design: dose 10 mg/kg, route oral; settings: in vivo
[7] = Clearance in Wistar rat at 5 mg/kg, iv; format: ADME, organism-based; design: dose 5 mg/kg, route intravenous; settings: in vivo
[8] = Half life in Wistar rat at 5 mg/kg, iv; format: ADME, organism-based; design: dose 5 mg/kg, route intravenous; settings: in vivo
[9] = Apparent volume of distribution in Wistar rat at 5 mg/kg, iv; format: ADME, organism-based; design: dose 5 mg/kg, route intravenous; settings: in vivo, read-out: Vz
[10] = AUC (0 to 24 hrs) in Wistar rat at 5 mg/kg, iv; format: ADME, organism-based; design: time < 24 hr, dose 5 mg/kg, route intravenous; settings: plasma
[11] = Ratio of drug uptake in brain to plasma in Wistar rat at 10 mg/kg, po after 1 hr; format: ADME, organism-based; design: dose 10 mg/kg, route oral; settings: read-out: BPR
[12] = Drug metabolism in human liver microsomes at 2.5 uM at 30 mins by LC-MS/MS analysis; format: ADME, Microsome; settings: read-out: Drug metabolism
[13] = Drug metabolism in Wistar rat liver microsomes at 2.5 uM at 30 mins by LC-MS/MS analysis; format: ADME, Microsome; settings: read-out: Drug metabolism
Cytochrome P450 2D6 = Cytochrome P450 2D6 (Homo sapiens, UniProt P10635); test: Inhibition of CYP2D6 in human liver microsomes using dextromethorphan as substrate after 10 mins by LC-MS/MS analysis in presence of NADPH
Sequence of Cytochrome P450 2D6 (P10635 whole entry): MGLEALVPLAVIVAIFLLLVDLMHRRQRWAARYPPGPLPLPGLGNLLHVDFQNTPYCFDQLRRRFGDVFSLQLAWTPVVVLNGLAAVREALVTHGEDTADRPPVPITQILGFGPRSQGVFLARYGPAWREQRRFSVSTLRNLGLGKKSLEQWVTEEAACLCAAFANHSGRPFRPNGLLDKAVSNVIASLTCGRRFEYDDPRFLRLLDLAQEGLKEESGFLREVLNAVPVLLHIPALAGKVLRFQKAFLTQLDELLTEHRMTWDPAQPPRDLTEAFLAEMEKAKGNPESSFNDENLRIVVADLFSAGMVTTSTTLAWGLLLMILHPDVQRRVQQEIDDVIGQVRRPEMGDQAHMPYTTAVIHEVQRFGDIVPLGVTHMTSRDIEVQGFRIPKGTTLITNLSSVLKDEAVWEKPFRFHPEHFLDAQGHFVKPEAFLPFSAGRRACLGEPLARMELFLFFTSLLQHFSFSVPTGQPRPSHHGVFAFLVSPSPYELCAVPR

[14] = target: Voltage-gated inwardly rectifying potassium channel KCNH2 (Homo sapiens, UniProt Q12809); test: Displacement of [3H]astemizole from human ERG by microbeta scintillation counting
Sequence of Voltage-gated inwardly rectifying potassium channel KCNH2 (Q12809 whole entry): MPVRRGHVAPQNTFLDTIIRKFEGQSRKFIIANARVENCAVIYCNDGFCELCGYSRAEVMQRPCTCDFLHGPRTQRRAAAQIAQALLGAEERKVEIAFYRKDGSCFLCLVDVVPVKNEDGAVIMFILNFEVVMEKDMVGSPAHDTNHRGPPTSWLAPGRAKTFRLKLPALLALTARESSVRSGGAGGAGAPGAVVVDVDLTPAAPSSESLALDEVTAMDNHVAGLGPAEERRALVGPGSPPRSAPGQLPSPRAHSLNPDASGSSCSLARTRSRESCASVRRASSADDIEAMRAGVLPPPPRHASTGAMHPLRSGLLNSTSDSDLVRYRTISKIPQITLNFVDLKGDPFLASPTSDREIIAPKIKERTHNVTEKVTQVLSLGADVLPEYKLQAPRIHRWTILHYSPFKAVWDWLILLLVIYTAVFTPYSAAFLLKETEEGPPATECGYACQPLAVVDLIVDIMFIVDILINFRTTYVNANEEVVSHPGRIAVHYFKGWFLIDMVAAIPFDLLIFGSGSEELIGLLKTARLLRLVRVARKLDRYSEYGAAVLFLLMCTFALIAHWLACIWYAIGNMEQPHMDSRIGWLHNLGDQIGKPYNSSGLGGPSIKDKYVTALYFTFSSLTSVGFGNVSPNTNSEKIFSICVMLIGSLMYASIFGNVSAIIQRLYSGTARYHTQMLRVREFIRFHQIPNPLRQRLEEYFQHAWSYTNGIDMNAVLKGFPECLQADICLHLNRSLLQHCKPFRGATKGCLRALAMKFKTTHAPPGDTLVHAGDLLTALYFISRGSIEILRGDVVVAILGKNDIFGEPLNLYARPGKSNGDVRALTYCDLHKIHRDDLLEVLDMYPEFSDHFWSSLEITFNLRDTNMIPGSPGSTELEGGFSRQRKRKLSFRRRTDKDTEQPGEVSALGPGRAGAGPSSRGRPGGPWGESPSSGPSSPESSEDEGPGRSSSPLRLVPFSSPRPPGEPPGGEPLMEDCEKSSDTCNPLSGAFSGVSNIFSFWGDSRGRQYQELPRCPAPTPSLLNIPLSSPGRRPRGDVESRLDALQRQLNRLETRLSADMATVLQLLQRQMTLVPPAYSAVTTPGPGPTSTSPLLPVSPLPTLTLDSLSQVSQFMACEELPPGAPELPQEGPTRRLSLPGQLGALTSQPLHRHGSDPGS

Row | Structure (SMILES) | Imax [1] [%] | Kb [2] [nM] | also measured
1 | CCc1ccc(S(=O)(=O)n2ccc3cc(F)ccc32)cc1NC1CCN(C)CC1 | 95 | 18.3 | –
2 | CCc1ccc(S(=O)(=O)n2ccc3c(Cl)cccc32)cc1NC1CCN(C)CC1 | 90 | 12.8 | –
3 | COc1ccc(S(=O)(=O)n2ccc3ccccc32)cc1NC1CCN(C)CC1 | 100 | 1.22 | –
4 | COc1ccc(S(=O)(=O)n2cc(C)c3cc(Cl)cnc32)cc1NC1CCNCC1 | 97 | 0.1 | –
5 | COc1ccc(S(=O)(=O)n2ccc3ccc(Cl)cc32)cc1NC1CCN(C)CC1 | 100 | 0.14 | –
6 | COc1ccc(S(=O)(=O)n2ccc3cc(Cl)ccc32)cc1NC1CCN(C)CC1 | 98 | 4.37 | –
7 | COc1ccc(S(=O)(=O)N2CCOc3ccc(Cl)cc32)cc1NC1CCN(C)CC1 | 100 | 0.1 | AUC(0-t) at 24 h [3]: 0.384 µg·h/mL; bioavailability [4]: 12%; Tmax [5]: 0.5 h; Cmax [6]: 0.197 µg/mL; clearance [7]: 3.48 L/h/kg; half-life [8]: 0.7 h; Vd [9]: 2.5 L/kg; AUC(0-t) at 24 h [10]: 1.45 µg·h/mL; Kp at 1 h [11]: 0.6; metabolised at 0.5 h, 2.5 µM [12]: 70%; metabolised at 0.5 h, 2.5 µM [13]: 85%
8 | Cc1cn(S(=O)(=O)c2ccc(F)c(NC3CCN(C)CC3)c2)c2ccccc12 | 100 | 0.52 | –
9 | COc1ccc2c(ccn2S(=O)(=O)c2ccc(F)c(NC3CCN(C)CC3)c2)c1 | 95 | 11.7 | –
10 | COc1ccc(S(=O)(=O)n2cc(C)c3ccc(Cl)cc32)cc1NC1CCN(C)CC1 | 100 | 0.1 | –
11 | COc1ccc(S(=O)(=O)n2ccc3cc(Br)ccc32)cc1NC1CCN(C)CC1 | 97 | 1.91 | –
12 | COc1ccc(S(=O)(=O)N2CCOc3ccc(F)cc32)cc1NC1CCN(C)CC1 | 100 | 0.1 | –
13 | COc1ccc2c(ccn2S(=O)(=O)c2ccc(OC)c(NC3CCN(C)CC3)c2)c1 | 96 | 3.8 | –
14 | COc1ccc2ccn(S(=O)(=O)c3cccc(NC4CCN(C)CC4)c3)c2c1 | 100 | 1.2 | –
15 | COc1ccc(S(=O)(=O)N2CCOc3ccc(C)cc32)cc1NC1CCN(C)CC1 | 100 | 0.1 | –
16 | COc1ccc(S(=O)(=O)N2CCCc3ccccc32)cc1NC1CCN(C)CC1 | 100 | 0.06 | Kp at 1 h [11]: 0.02
17 | COc1cnc2c(c1)c(C)cn2S(=O)(=O)c1ccc(OC)c(NC2CCN(C)CC2)c1 | 95 | 2.3 | –
18 | CN1CCC(Nc2cc(S(=O)(=O)n3ccc4cc(Br)ccc43)ccc2F)CC1 | 94 | 16 | –
19 | CN1CCC(Nc2cccc(S(=O)(=O)n3ccc4ccccc43)c2)CC1 | 92 | 3.19 | –
20 | Cc1nn(S(=O)(=O)c2ccc(F)c(NC3CCN(C)CC3)c2)c2ccc(Cl)cc12 | 59 | 10.1 | –
21 | Cc1cn(S(=O)(=O)c2cccc(NC3CCN(C)CC3)c2)c2ncc(Cl)cc12 | 99 | 4 | –
22 | COc1ccc2ccn(S(=O)(=O)c3ccc(C)c(NC4CCN(C)CC4)c3)c2c1 | 98 | 0.25 | –
23 | CN1CCC(Nc2cccc(S(=O)(=O)n3ccc4cc(Br)ccc43)c2)CC1 | 98 | 10.3 | –
24 | COc1ccc2ccn(S(=O)(=O)c3ccc(Cl)c(NC4CCN(C)CC4)c3)c2c1 | 100 | 3.3 | –
25 | COc1ccc(S(=O)(=O)N2CCOc3ccc(C(F)(F)F)cc32)cc1NC1CCN(C)CC1 | 100 | 0.1 | –
26 | CN1CCC(Nc2cc(S(=O)(=O)n3ccc4ccccc43)ccc2F)CC1 | 100 | 1.6 | –

Row | Structure (SMILES) | Imax [1] [%] | Kb [2] [nM] | also measured
27 | COc1ccc(S(=O)(=O)n2cc(C)c3nc(Cl)ccc32)cc1NC1CCN(C)CC1 | 98 | 1.7 | –
28 | COc1ccc2ccn(S(=O)(=O)c3ccc(OC)c(NC4CCN(C)CC4)c3)c2c1.O=P(O)(O)O | 100 | 0.1 | Kp at 1 h [11]: 0.6
29 | COc1ccc(S(=O)(=O)N2CCCc3ccccc32)cc1NC1CCNCC1 | 100 | 0.1 | –
30 | CCc1ccc(S(=O)(=O)n2ccc3ccccc32)cc1NC1CCN(C)CC1 | 99 | 1.39 | –
31 | COc1ccc2c(ccn2S(=O)(=O)c2cccc(NC3CCN(C)CC3)c2)c1 | 96 | 12.5 | –
32 | COc1ccc2c(ccn2S(=O)(=O)c2ccc(C)c(NC3CCN(C)CC3)c2)c1 | 70 | 51.3 | –
33 | COc1ccc(S(=O)(=O)n2ccc3ccc(F)cc32)cc1NC1CCNCC1 | 100 | 0.3 | –
34 | COc1ccc(S(=O)(=O)N2CC(C)(C)Oc3ccc(F)cc32)cc1NC1CCN(C)CC1 | 100 | 0.1 | –
35 | COc1ccc(S(=O)(=O)n2ccc3cc(OC(C)C)ccc32)cc1NC1CCN(C)CC1 | 100 | 2.2 | –
36 | COc1ccc(S(=O)(=O)n2ccc3cc(F)ccc32)cc1NC1CCNCC1 | 100 | 0.3 | –
37 | COc1ccc(S(=O)(=O)N2CCc3ccccc3C2)cc1NC1CCN(C)CC1 | 98 | 0.07 | Kp at 1 h [11]: 0.24
38 | COc1ccc(S(=O)(=O)n2ccc3cc(Cl)cnc32)cc1NC1CCN(C)CC1 | 98 | 0.15 | –
39 | Cc1ccc(S(=O)(=O)n2ccc3cc(F)ccc32)cc1NC1CCN(C)CC1 | 97 | 7.5 | –
40 | CN1CCC(Nc2cccc(S(=O)(=O)n3ccc4ccc(Cl)cc43)c2)CC1 | 98 | 2.39 | –
41 | COc1ccc2c(C)cn(S(=O)(=O)c3ccc(OC)c(NC4CCN(C)CC4)c3)c2c1 | 100 | 0.1 | –
42 | COc1ccc(S(=O)(=O)n2nc(C)c3cc(Cl)ccc32)cc1NC1CCN(C)CC1.O=C(O)C(O)C(O)C(=O)O | 100 | 0.6 | AUC(0-t) at 24 h [3]: 0.3 µg·h/mL; bioavailability [4]: 25%; Tmax [5]: 2 h; Cmax [6]: 0.057 µg/mL; clearance [7]: 8.58 L/h/kg; half-life [8]: 1.7 h; Vd [9]: 16 L/kg; AUC(0-t) at 24 h [10]: 0.6 µg·h/mL; Kp at 1 h [11]: 0.5; metabolised at 0.5 h, 2.5 µM [12]: 60%; metabolised at 0.5 h, 2.5 µM [13]: 69%; IC50 (Cytochrome P450 2D6): 14500 nM
43 | COc1cnc2c(ccn2S(=O)(=O)c2ccc(OC)c(NC3CCN(C)CC3)c2)c1 | 90 | 12 | –
44 | COc1ccc(S(=O)(=O)n2ccc3cc(F)ccc32)cc1NC1CCN(C)CC1 | 100 | 1.8 | –
45 | COc1ccc(S(=O)(=O)n2ccc3cc(Br)ccc32)cc1NC1CCNCC1 | 99 | 3.2 | –
46 | COc1ccc(S(=O)(=O)n2cc(C)c3cc(F)ccc32)cc1NC1CCN(C)CC1 | 100 | 0.52 | Ki [14]: 950 nM
47 | Cc1nn(S(=O)(=O)c2ccc(Cl)c(NC3CCN(C)CC3)c2)c2ccc(Cl)cc12 | 39 | 28.6 | –
48 | COc1ccc(S(=O)(=O)N2CCOc3ccccc32)cc1NC1CCN(C)CC1 | 100 | 0.2 | Ki [14]: > 10000 nM
49 | Cc1ccc(S(=O)(=O)n2cc(C)c3cc(Cl)cnc32)cc1NC1CCN(C)CC1 | 97 | 3.9 | –
50 | CCc1ccc(S(=O)(=O)n2ccc3ccc(Cl)cc32)cc1NC1CCN(C)CC1 | 98 | 5.3 | –
51 | COc1ccc(S(=O)(=O)n2cc(C)c3cc(Cl)ncc32)cc1NC1CCN(C)CC1 | 85 | 1.3 | –
52 | COc1ccc(S(=O)(=O)n2ccc3ccc(F)cc32)cc1NC1CCN(C)CC1 | 100 | 0.2 | –
